Results from PMC10302868 (Molecules, 2023).
In brackets after ≈: the same amount, converted by molar mass. Read-outs that look alike come from different tables or passages of the source.

Tests used:
in vitro [1] = format: in vitro ADME; conditions: human, plasma, pH 7.4
Procedure: Human plasma (BIOMEX GmbH) was mixed from more than 6 individuals and rat plasma was mixed from more than 10 rats. […] The samples were matched with opposite blank buffer to obtain a final volume of 100 µL with a volume ratio of the matrix: Dialysis Buffer (100 mM sodium phosphate and 150 mM NaCl, pH 7.4) (1:1) in each well. […] The plate was sealed and shaken at 800 rpm for 10 min. Then these T0 samples were stored at 4 °C pending further processing along with other post-dialysis samples. […] The plate was rotated at 100 rpm in a humidified incubator with 5% CO2 at 37 °C for 4 h. At the end of the dialysis, all samples were further processed by protein precipitation for LC-MS/MS analysis. The %bound was calculated using the following equations:%Unbound = 100 × F/T %Bound = 100 − %Unbound
F = Free compound concentration as determined by the calculated concentration on the buffer side of the membrane.
T = Total compound concentration as determined by the calculated concentration on the matrix side of the membrane.

in vitro [2] = format: in vitro ADME; conditions: microsomes
Procedure: Microsomes from humans and rats were purchased from Corning (Shanghai, China) and Xenotech (Kansas City, KS, USA), respectively. The working solution of liver microsomes was prepared in 100 mM phosphate buffer at 0.56 mg/mL. The quench solution was cold (4 °C) acetonitrile (ACN) containing 200 ng/mL Verapamil and 200 ng/mL Imipramine as internal standards (IS). An amount of 445 µL of the microsomal working solution was transferred into the pre-warmed plates T120 (incubate time: 120 min) and NCF 120 (no co-factor NADPH regenerating system), then the plates were incubated at 37 °C for 10 min with constant shaking. An amount of 54 µL of the liver microsomes was transferred into a blank plate, and 6 µL NADPH and 180 µL quenching solution were added to the blank plate. The microsomal working solution (0.56 mg/mL) and the compound working solution (100 µM) were mixed 3 times thoroughly and 54 µL was immediately removed for the 0 min point. Then 44 µL NADPH cofactor was added to the incubation plate, and shaken at 37 °C for 120 min. At 15, 30, 60, 90, and 120 min, a 60 µL sample was transferred to the quenching solution and centrifuged at 4000 rpm for 20 min at 4 °C [6]. Then, 80 µL supernatant was transferred to the HPLC water and shaken for 10 min before LC-MS/MS analysis.

in vitro [3] = format: in vitro ADME; conditions: hepatocytes
Procedure: Cryopreserved hepatocytes from male SD rats and humans were both purchased from Bioreclamation-IVT. The human cryopreserved hepatocytes were pooled from 10 human donors with a viability of 77.9% tested by trypan blue. The rats’ cryopreserved hepatocytes were pooled from 12 male SD (Sprague Dawley) rats, and the cell viability was 80.9%. The hepatocytes were diluted to 0.5 × 10^6/mL cell suspension with pre-warmed incubation medium ([…]). […] At 15, 30, 60, and 90 min, the samples were mixed and then 25 μL of each sample was transferred at each time point to a well containing 125 μL of ice-cold stop solution (acetonitrile containing 200 ng/mL tolbutamide and labetalol as internal standards) followed by mixing. The samples were vortexed on a plate shaker at 500 rpm for 10 min, and centrifuged at 3220× g for 20 min at 4 °C. The supernatants were transferred to ultra-pure water and analyzed by LC-MS/MS. […] CLint (hep) = k/million cells per mL CLint (liver) = CLint (hep) × liver weight (g/kg body weight) × hepatocellularity

[4] = system: S. aureus ATCC 29213 (MSSA); test: MIC determination; format: cell-based; conditions: Staphylococcus aureus
[5] = system: S. aureus ATCC 700698 (MRSA); test: MIC determination; format: cell-based; conditions: Staphylococcus aureus
[6] = system: S. aureus SAU-0167 (MRSA); test: MIC determination; format: cell-based; conditions: Staphylococcus aureus
[7] = system: S. aureus SAU-9922 (MRSA); test: MIC determination; format: cell-based; conditions: Staphylococcus aureus
S. epidermidis SEP-1024 = test: MIC determination; format: cell-based; conditions: Staphylococcus epidermidis, SEP1024
S. pneumoniae SPN-1169 = test: MIC determination; format: cell-based; conditions: Streptococcus pneumoniae, SPN1169
S. pyogenes SPY-0253 = test: MIC determination; format: cell-based; conditions: Streptococcus pyogenes, SPY0253
[8] = system: E. faecium EFA-0221 (VRE); test: MIC determination; format: cell-based; conditions: Enterococcus faecium
E. faecalis EFA-1299 = test: MIC determination; format: cell-based; conditions: Enterococcus faecalis, EFA1299
E. faecalis ATCC 29212 = test: MIC determination; format: cell-based; conditions: Enterococcus faecalis, ATCC29212
H. influenzae ATCC 49247 = test: MIC determination; format: cell-based; conditions: Haemophilus influenzae, ATCC49247
A. baumannii ATCC 17978 = test: MIC determination; format: cell-based; conditions: Acinetobacter baumannii, ATCC17978
[9] = system: A. baumannii ATCC BAA-1605; test: MIC determination; format: cell-based; conditions: Acinetobacter baumannii, ATCCBAA1605
[10] = system: K. pneumoniae ATCC BAA-1705; test: MIC determination; format: cell-based; conditions: Klebsiella pneumoniae, ATCCBAA1705
P. aeruginosa ATCC 27853 = test: MIC determination; format: cell-based; conditions: Pseudomonas aeruginosa, ATCC27853
E. coli ATCC 25922 = test: MIC determination; format: cell-based; conditions: Escherichia coli, ATCC25922
S. maltophilia STM-0001 = test: MIC determination; format: cell-based; conditions: Stenotrophomonas maltophilia, STM0001
[11] = system: M. tuberculosis H37Rv ATCC27294; test: MIC determination (Microplate Alamar Blue Assay); format: cell-based, Mycobacterium tuberculosis; conditions: M. tuberculosis H37Rv ATCC27294, 7 days
[12] = system: M. bovis BCG (Pasteur 1173P2); test: microbe, parasite or virus in culture; format: cell-based; conditions: Mycobacterium tuberculosis variant bovis BCG, 168 h
M. smegmatis mc^2155 = test: MIC determination (Microplate Alamar Blue Assay); format: cell-based; conditions: Mycolicibacterium smegmatis; M. smegmatis mc^2155, 72 h
M. abscessus-GDI = test: MIC determination (Microplate Alamar Blue Assay); format: cell-based, Mycobacterium abscessus; conditions: Mycobacteroides abscessus, 72 h
M. abscessus-C16 = test: MIC determination (Microplate Alamar Blue Assay); format: cell-based, Mycobacterium abscessus; conditions: Mycobacteroides abscessus; M. abscessus-C16, 72 h
M. abscessus-C28 = test: MIC determination (Microplate Alamar Blue Assay); format: cell-based, Mycobacterium abscessus; conditions: Mycobacteroides abscessus, 72 h
M. abscessus-C58 = test: MIC determination (Microplate Alamar Blue Assay); format: cell-based, Mycobacterium abscessus; conditions: Mycobacteroides abscessus; M. abscessus-C58, 72 h
[13] = human
[14] = male, Sprague-Dawley, rat, in vivo, iv, 3 mg/kg
[15] = allometric scaling from rat volume of distribution
[16] = system: Wolbachia-infected LDW1 cells (wMel); conditions: cited from earlier work
[17] = system: Wolbachia-infected C6/36 cells (wAlb); conditions: cited from earlier work
in vivo = conditions: male, Sprague-Dawley, rat
in vitro [18] = conditions: African green monkey
MDR1-MDCK = conditions: cited from earlier work
Pharmacokinetics in rats = conditions: Rat

## C=C[C@]1(C)C[C@@H](OC(=O)COc2ccc3c(c2F)B(O)OC3)[C@]2(C)[C@H](C)CC[C@]3(CCC(=O)[C@H]32)[C@@H](C)[C@@H]1O [AN11251]
In vitro [1]
  fraction unbound at 4 h, 2 µM: 0.024
In vitro [2]; human
  CLint scaled: 300 mL/min/kg
In vitro [2]; rat
  CLint scaled: 333 mL/min/kg
In vitro [3]; human
  CLint scaled at 20 µg/mL: 180 mL/min/kg
  hepatocyte CLint at 20 µg/mL: 64.8 µL/min/1e6 cells
In vitro [3]; male, Sprague-Dawley, rat
  CLint scaled at 20 µg/mL: 876 mL/min/kg
[4]
  MIC: < 0.039 µg/mL
[5]
  MIC: < 0.039 µg/mL
[6]
  MIC: 0.063 µg/mL (≈ 0.119 µM)
[7]
  MIC: 0.063 µg/mL (≈ 0.119 µM)
S. epidermidis SEP-1024
  MIC: 0.063 µg/mL (≈ 0.119 µM)
S. pneumoniae SPN-1169
  MIC: 0.5 µg/mL (≈ 0.946 µM)
S. pyogenes SPY-0253
  MIC: 0.063 µg/mL (≈ 0.119 µM)
[8]
  MIC: 0.125 µg/mL (≈ 0.237 µM)
E. faecalis EFA-1299
  MIC: 4 µg/mL (≈ 7.57 µM)
E. faecalis ATCC 29212
  MIC: 5 µg/mL (≈ 9.46 µM)
H. influenzae ATCC 49247
  MIC: 2 µg/mL (≈ 3.78 µM)
A. baumannii ATCC 17978
  MIC: 20 µg/mL (≈ 37.8 µM)
[9]
  MIC: 32 µg/mL (≈ 60.6 µM)
[10]
  MIC: > 32 µg/mL
P. aeruginosa ATCC 27853
  MIC: > 32 µg/mL
E. coli ATCC 25922
  MIC: > 32 µg/mL
S. maltophilia STM-0001
  MIC: > 32 µg/mL
[11]
  MIC: 0.952 µg/mL (≈ 1.8 µM)
[11]; Mycobacterium tuberculosis, 168 h, read-out: MIC
  MIC: 0.925 µg/mL (≈ 1.75 µM)
[12]
  MIC: 2.5 µg/mL (≈ 4.73 µM)
M. smegmatis mc^2155
  MIC: > 20 µg/mL
M. abscessus-GDI
  MIC: > 20 µg/mL
M. abscessus-C16
  MIC: > 20 µg/mL
M. abscessus-C28
  MIC: > 20 µg/mL
M. abscessus-C58
  MIC: > 20 µg/mL
[13]
  half-life: 252 min
[14]
  MRT: 1.04 h
[15]
  predicted human volume of distribution: 1.029 L/kg
[16]
  EC50: 0.792 ng/mL (≈ 0.0015 µM)
[17]
  EC50: 7.92 ng/mL (≈ 0.015 µM)
In vivo
  bioavailability: 19.2%
In vivo; iv, 3 mg/kg
  Tmax: 0 h
  Vd: 1.44 L/kg
  clearance: 19.8 mL/min/kg
  half-life: 105 min
  MRT: 1.22 h
In vivo; po, 10 mg/kg
  half-life: 143 min
  MRT: 2.26 h
physchem
  logP: 4.5
In vitro [18]
  CC50: 27 µg/mL (≈ 51.1 µM)
MDR1-MDCK
  apparent permeability (Papp): 1.41e-05 cm/s
Pharmacokinetics in rats
  time until eliminated (plasma concentration-time curve): ≤ 8 h

## NCC[C@H](O)C(=O)N[C@@H]1C[C@H](N)[C@@H](O[C@H]2O[C@H](CN)[C@@H](O)[C@H](O)[C@H]2O)[C@H](O)[C@H]1O[C@H]1O[C@H](CO)[C@@H](O)[C@H](N)[C@H]1O [Amikacin]
[4]
  MIC: 8 µg/mL (≈ 13.7 µM)
[5]
  MIC: > 32 µg/mL
[6]
  MIC: > 32 µg/mL
[7]
  MIC: 2 µg/mL (≈ 3.42 µM)
S. epidermidis SEP-1024
  MIC: ≤ 1 µg/mL
S. pneumoniae SPN-1169
  MIC: > 32 µg/mL
S. pyogenes SPY-0253
  MIC: 32 µg/mL (≈ 54.6 µM)
[8]
  MIC: > 32 µg/mL
E. faecalis EFA-1299
  MIC: > 32 µg/mL
E. faecalis ATCC 29212
  MIC: > 32 µg/mL
A. baumannii ATCC 17978
  MIC: 2 µg/mL (≈ 3.42 µM)
[10]
  MIC: > 32 µg/mL
P. aeruginosa ATCC 27853
  MIC: 8 µg/mL (≈ 13.7 µM)
E. coli ATCC 25922
  MIC: 8 µg/mL (≈ 13.7 µM)
S. maltophilia STM-0001
  MIC: > 32 µg/mL
M. abscessus-GDI
  MIC: 6.38 µg/mL (≈ 10.9 µM)
M. abscessus-C16
  MIC: 12.7 µg/mL (≈ 21.7 µM)
M. abscessus-C28
  MIC: 14.5 µg/mL (≈ 24.7 µM)
M. abscessus-C58
  MIC: 12.8 µg/mL (≈ 21.9 µM)
